Values quoted from earlier work in paper PMC11224109, “Synthesis and preclinical evaluation of novel ^18F-vancomycin-based tracers for the detection of bacterial infections using positron emission tomography” (European Journal of Nuclear Medicine and Molecular Imaging, 2024).

Conditions: cited from earlier work

CN[C@H](CC(C)C)C(=O)N[C@H]1C(=O)N[C@@H](CC(N)=O)C(=O)N[C@H]2C(=O)N[C@H]3C(=O)N[C@H](C(=O)N[C@H](C(=O)O)c4cc(O)cc(O)c4-c4cc3ccc4O)[C@H](O)c3ccc(c(Cl)c3)Oc3cc2cc(c3O[C@@H]2O[C@H](CO)[C@@H](O)[C@H](O)[C@H]2O[C@H]2C[C@](C)(N)[C@H](O)[C@H](C)O2)Oc2ccc(cc2Cl)[C@H]1O [vancomycin]
Clinically relevant serum levels: about 15 µg/mL
